Experimental data taken from ChEMBL document CHEMBL4261532, “Theoretical models of inhibitory activity for inhibitors of protein-protein interactions: targeting menin-mixed lineage leukemia with small molecules” (Medchemcomm, 2017).

What follows are compounds tested against T1, Menin/Histone-lysine N-methyltransferase MLL (Homo sapiens, UniProt O00255) (assay: Inhibition of full length human menin-MLL1 (4 to 43 residues) (unknown origin) protein-protein interaction after 1 hr by fluorescence polarization assay).
T1 sequence (O00255 whole entry, the tested form may be a part): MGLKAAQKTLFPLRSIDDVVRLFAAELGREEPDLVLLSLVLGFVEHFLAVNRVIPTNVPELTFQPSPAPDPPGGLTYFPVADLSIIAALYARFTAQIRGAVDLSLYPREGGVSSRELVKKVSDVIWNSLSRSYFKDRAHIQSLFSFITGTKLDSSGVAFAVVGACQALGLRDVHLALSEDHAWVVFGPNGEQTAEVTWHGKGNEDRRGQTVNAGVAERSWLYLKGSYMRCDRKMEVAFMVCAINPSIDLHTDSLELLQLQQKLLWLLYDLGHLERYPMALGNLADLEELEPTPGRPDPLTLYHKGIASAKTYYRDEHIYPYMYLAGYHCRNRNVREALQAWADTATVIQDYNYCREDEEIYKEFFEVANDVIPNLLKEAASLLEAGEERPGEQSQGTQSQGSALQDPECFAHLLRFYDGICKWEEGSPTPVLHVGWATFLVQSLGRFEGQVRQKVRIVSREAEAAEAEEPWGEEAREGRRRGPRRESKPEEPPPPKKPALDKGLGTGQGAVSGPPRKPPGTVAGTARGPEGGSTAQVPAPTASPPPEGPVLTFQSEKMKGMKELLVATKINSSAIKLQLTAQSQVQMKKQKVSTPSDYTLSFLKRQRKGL
T1 sequence (Q03164 1-2718 partner limits assumed): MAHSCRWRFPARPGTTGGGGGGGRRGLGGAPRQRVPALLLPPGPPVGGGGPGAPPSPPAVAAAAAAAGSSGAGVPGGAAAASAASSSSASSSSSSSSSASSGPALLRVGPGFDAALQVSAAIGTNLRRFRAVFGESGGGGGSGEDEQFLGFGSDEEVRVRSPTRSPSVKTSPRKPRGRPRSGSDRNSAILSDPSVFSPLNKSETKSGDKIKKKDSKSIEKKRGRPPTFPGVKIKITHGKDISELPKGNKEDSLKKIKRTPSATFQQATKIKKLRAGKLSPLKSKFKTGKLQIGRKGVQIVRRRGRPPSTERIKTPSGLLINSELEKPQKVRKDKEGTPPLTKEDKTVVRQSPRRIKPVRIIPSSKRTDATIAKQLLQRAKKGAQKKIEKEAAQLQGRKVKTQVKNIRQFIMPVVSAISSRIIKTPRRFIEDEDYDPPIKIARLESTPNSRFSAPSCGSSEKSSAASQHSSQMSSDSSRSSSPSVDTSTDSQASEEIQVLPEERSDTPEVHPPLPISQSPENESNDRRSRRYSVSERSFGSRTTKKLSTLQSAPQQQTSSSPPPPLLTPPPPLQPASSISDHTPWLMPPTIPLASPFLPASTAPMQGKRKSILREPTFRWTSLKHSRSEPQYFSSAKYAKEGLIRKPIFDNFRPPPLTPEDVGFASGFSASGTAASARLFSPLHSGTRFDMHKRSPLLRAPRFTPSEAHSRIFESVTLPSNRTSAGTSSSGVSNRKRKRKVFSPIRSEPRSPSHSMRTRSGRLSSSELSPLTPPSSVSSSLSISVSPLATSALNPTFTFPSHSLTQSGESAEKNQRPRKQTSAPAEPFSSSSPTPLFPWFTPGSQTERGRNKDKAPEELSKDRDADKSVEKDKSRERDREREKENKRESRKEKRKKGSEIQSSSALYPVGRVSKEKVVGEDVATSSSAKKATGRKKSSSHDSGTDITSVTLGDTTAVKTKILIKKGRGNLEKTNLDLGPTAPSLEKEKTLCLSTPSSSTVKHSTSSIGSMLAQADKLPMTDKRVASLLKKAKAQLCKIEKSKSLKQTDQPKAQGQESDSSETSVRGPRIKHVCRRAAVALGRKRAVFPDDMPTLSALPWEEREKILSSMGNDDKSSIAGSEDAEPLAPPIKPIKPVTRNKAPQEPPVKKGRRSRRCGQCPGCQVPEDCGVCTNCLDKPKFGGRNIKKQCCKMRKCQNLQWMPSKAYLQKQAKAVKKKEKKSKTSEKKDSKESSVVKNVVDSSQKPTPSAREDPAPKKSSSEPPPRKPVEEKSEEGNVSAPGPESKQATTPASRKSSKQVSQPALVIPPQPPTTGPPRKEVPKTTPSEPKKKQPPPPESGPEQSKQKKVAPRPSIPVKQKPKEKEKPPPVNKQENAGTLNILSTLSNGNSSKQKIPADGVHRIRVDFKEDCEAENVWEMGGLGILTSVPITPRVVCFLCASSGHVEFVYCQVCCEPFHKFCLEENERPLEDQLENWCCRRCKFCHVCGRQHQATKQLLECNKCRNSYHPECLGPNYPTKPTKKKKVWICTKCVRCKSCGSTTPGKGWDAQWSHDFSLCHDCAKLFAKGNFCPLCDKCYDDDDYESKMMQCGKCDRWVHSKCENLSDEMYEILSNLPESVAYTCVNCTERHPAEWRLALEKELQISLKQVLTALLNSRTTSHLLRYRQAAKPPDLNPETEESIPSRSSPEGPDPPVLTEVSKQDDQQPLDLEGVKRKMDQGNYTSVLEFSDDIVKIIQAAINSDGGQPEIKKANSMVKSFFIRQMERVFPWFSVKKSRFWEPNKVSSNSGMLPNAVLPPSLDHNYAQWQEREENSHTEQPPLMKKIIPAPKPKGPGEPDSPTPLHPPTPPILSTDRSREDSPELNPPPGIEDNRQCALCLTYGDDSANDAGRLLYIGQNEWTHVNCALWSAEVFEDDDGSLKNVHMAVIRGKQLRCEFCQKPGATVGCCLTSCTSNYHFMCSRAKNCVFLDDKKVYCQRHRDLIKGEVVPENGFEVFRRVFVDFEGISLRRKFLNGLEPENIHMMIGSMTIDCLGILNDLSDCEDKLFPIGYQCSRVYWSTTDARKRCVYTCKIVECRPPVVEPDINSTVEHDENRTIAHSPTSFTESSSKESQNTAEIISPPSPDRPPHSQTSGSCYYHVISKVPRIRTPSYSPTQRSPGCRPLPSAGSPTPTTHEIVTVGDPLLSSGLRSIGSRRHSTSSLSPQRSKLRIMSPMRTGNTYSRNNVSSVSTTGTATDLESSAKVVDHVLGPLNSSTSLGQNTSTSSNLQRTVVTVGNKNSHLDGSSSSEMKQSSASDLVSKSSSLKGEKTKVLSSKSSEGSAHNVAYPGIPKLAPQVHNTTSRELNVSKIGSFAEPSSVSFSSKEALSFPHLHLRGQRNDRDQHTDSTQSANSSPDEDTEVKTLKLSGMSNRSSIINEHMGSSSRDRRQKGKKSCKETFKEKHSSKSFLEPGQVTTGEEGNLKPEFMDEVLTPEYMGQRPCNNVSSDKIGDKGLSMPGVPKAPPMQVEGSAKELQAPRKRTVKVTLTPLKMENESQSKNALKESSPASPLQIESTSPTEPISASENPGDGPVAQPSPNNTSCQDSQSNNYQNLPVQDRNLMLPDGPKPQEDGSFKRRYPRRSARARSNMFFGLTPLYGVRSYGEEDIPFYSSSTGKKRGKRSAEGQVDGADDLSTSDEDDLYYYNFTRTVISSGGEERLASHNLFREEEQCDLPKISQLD
T1 sequence (Q03164 2719-3969 partner limits assumed): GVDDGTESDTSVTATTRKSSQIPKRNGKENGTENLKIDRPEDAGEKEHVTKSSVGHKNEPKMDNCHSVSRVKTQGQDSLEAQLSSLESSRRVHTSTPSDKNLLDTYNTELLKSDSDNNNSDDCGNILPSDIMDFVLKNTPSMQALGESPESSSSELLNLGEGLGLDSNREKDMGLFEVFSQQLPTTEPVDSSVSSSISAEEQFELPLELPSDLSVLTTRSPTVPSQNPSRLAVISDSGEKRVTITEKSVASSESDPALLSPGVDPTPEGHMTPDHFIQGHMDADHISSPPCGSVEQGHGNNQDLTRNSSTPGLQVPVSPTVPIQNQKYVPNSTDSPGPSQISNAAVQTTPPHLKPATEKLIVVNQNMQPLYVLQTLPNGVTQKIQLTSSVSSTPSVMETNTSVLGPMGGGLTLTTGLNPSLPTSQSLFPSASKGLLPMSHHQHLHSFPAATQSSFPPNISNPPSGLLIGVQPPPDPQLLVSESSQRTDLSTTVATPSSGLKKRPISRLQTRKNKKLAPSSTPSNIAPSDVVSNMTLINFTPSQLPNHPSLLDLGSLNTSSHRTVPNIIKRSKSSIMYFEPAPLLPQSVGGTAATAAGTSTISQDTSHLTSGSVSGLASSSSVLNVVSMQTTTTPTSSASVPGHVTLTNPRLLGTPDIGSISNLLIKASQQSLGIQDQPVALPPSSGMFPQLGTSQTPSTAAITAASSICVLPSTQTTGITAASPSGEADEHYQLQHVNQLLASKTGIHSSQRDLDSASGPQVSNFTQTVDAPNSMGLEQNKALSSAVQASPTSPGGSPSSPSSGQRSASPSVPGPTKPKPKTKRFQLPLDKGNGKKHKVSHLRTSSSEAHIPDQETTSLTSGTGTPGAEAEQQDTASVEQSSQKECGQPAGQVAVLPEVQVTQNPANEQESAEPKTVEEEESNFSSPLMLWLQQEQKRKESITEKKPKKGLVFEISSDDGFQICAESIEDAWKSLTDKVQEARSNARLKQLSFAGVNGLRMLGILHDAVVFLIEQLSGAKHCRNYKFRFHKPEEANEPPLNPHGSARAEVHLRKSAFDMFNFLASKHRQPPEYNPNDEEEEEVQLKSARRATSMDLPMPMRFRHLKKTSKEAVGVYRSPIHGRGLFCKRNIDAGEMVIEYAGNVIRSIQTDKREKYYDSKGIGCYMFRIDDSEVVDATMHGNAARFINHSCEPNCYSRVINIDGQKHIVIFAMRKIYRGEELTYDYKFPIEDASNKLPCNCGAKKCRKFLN

IC50 | Compound
765 nM | CC(c1cc2c(N3CCN(C4=NCC(C)(C)S4)CC3)ncnc2s1)C(F)(F)F (stereo not given)

These compounds were tested against T1, Menin/Histone-lysine N-methyltransferase MLL (assay: Inhibition of menin (unknown origin)-FITC-tagged MLL1 (unknown origin) protein-protein interaction after 1 hr by fluorescence polarization assay).

Compound | IC50
CCc1cc2c(N3CCN(c4ccccn4)CC3)ncnc2s1 | 58 µM
CCc1cc2c(N3CCN(Cc4ccccc4)CC3)ncnc2s1 | 52 µM
CCc1cc2c(N3CCN(c4nncs4)CC3)ncnc2s1 | 193 µM

Second part, the compound after the results:

IC50 | Compound
46 µM | CCc1cc2c(N3CCN(c4nccs4)CC3)ncnc2s1
0.75 µM | CCCCc1cc2c(N3CCN(C4=NCC(C)(C)S4)CC3)ncnc2s1
87 µM | CCc1cc2c(N3CCN(c4ncccn4)CC3)ncnc2s1
14 µM | CCc1cc2c(N3CCN(Cc4ccc(Cl)cc4)CC3)ncnc2s1

These compounds were tested against T1, Menin/Histone-lysine N-methyltransferase MLL (assay: Inhibition of menin (unknown origin)-fluorescein-labeled MLL1 (unknown origin) after 1 hr by fluorescence polarization assay).
Assay type: protein assay

Compound | IC50
CCc1cc2c(N3CCN(c4nnc(C(F)(F)F)s4)CC3)ncnc2s1 | 1300 nM
FC(F)(F)Cc1cc2c(N3CCN(c4nnc(C(F)(F)F)o4)CC3)ncnc2s1 | 1400 nM
FC(F)(F)c1nnc(N2CCN(c3ncnc4sc(C5CC5)cc34)CC2)s1 | 2000 nM
CCCc1cc2c(N3CCN(c4nnc(C(F)(F)F)s4)CC3)ncnc2s1 | 650 nM
CSc1cc2c(N3CCN(c4nnc(C(F)(F)F)s4)CC3)ncnc2s1 | 20000 nM

Now from value to compound:

IC50 | Compound
193 nM | CC1(C)CN=C(N2CCN(c3ncnc4sc(CCCl)cc34)CC2)S1
200000 nM | CCCc1cc2c(N3CCN(c4nnc(C(F)(F)F)[nH]4)CC3)ncnc2s1
